In one series the target is PDE10A (UniProt Q9Y233). Nature of the series: Measurement of PDE activity (HTRF cAMP kit, recombinant PDE10A). The series is classed as biochemical, human, rat and mouse. Conditions: substrate 20 nM, 60 minutes at 29° C. Here is the method:
a) Measurement of PDE Activity
The recombinant PDE proteins are used in in vitro enzymatic reaction for measurement of PDE activity. These recombinant proteins, including PDE10A (human, rat and mouse PDE10) and isoforms of PDEs 1, 3, 4, and 5, were purchased from commercial vendor BPS Bioscience. The enzymatic activity of PDEs was determined by cAMP measurement kit from CisBio (IBA) using HTRF technology.
The PDE enzymatic reaction was carried out in assay buffer (20 mM Tris-HCl pH 7.5, 10 mM MgCl2, 0.1% bovine serum albumin) containing enzyme and substrate. […] The substrate cyclic nucleotide (cAMP or cGMP) concentration used in the assay was 20 nM for PDE10, and 100 nM for other PDEs. The inhibitory effect of compound was determined by incubating various concentration of inhibitor in the enzymatic assay. […] Next, the compound at varying concentration was mixed with PDE enzyme. The reaction was initiated by addition of cyclic nucleotide substrate, and incubated for 60 minutes at 29° C. The reaction was stopped by addition of lysis buffer from the assay kit. The cAMP-d2 and anti-cAMP cryptate in the lysis buffer detected the level of cAMP left from the PDE hydrolysis reaction. […] Thus, IC50 value of inhibitor can be obtained by plotting inhibitor concentration against PDE activity at that concentration.
A general note: In TR-FRET formats the signal depends on donor and acceptor labels being close together.

A short description of series [1]: Determination of the microsomal half-life / microsomal clearance, rat liver microsomes. The class given is in vitro ADME. The conditions noted are these: 0.5 μM test substance, 0.25 mg of microsomal protein/mL, NADPH, 37° C. Here is the method:
(§1) b) Determination of the Microsomal Half-Life:
(§2) The metabolic stability of the compounds of the invention was determined in the following assay.
(§3) The test substances were incubated in a concentration of 0.5 μM as follows:
(§4) 0.5 μM test substance are preincubated together with liver microsomes from different species (from rat, human or other species) (0.25 mg of microsomal protein/mL) in 0.05 M potassium phosphate buffer of pH 7.4 in microtiter plates at 37° C. for 5 min. The reaction is started by adding NADPH (1 mg/mL). After 0, 5, 10, 15, 20 and 30 min, 50 μl aliquots are removed, and the reaction is immediately stopped and cooled with the same volume of acetonitrile. The samples are frozen until analyzed. The remaining concentration of undegraded test substance is determined by MSMS. The half-life (T½) is determined from the gradient of the signal of test substance/unit time plot, it being possible to calculate the half-life of the test substance, assuming first order kinetics, from the decrease in the concentration of the compound with time. The microsomal clearance (mCl) is calculated from mCl=ln 2/T½/(content of microsomal protein in mg/mL)×1000 [mL/min/mg] (modified from references: Di, The Society for Biomoleculur Screening, 2003, 453-462; Obach, DMD, 1999 vol 27. N 11, 1350-1359).
On the technique in general: Liver microsomes are vesicles of endoplasmic reticulum, rich in cytochrome P450 enzymes.

The nature of series [2]: Determination of the microsomal half-life / microsomal clearance, human liver microsomes. Conditions: 0.5 μM test substance, 0.25 mg of microsomal protein/mL, NADPH, 37° C. The class given is in vitro ADME. How it is done:
as §1, §2, §3, §4

Where a name gives a salt, the structure may show the parent alone.

The IC50 is the concentration that gives 50% inhibition.

On to “3-[4-oxo-7-(pyridin-4-yl)-5-(2,2,2-trifluoroethyl)-4,5-dihydrothieno[2,3-d]pyridazin-3-yl]benzonitrile [Example 127]”, for which the IC50 on PDE10A is below 100 nM. Further, in series [1], the “Rat mCl” value is “++ (++: <100 μl min^−1 mg^−1)”. In addition, the “Human mCl” value in series [2] is recorded as “++ (++: <100 μl min^−1 mg^−1)”.
Take `Cn1nc(-c2ccncc2)c2scc(NC3COC3)c2c1=O` [Example 2, 5-methyl-3-(oxetan-3-ylamino)-7-(pyridin-4-yl)thieno[2,3-d]pyridazin-4(5H)-one]: the half-maximal inhibitory concentration (IC50) on PDE10A is 200 to 500 nM. Further, in series [1], the “Rat mCl” value is on record as “+ (+: 100-220 μl min^−1 mg^−1)”. Moreover, the “Human mCl” value in series [2] is “++ (++: <100 μl min^−1 mg^−1)”.
Take `Cn1nc(-c2ccncc2)c2scc(N3CCOCC3)c2c1=O` [Example 3, 5-methyl-3-(morpholin-4-yl)-7-(pyridin-4-yl)thieno[2,3-d]pyridazin-4(5H)-one]: the concentration for half-maximal inhibition (IC50) on PDE10A lay within 200 to 500 nM. In addition, in series [1], the “Rat mCl” value is “++ (++: <100 μl min^−1 mg^−1)”. In series [2], the “Human mCl” value is given as “++ (++: <100 μl min^−1 mg^−1)”.
With `Cn1nc(-c2ccncc2)c2scc(-c3cncnc3)c2c1=O` [Example 11, 5-methyl-7-(pyridin-4-yl)-3-(pyrimidin-5-yl)thieno[2,3-d]pyridazin-4(5H)-one (hydrochloride salt)], the IC50 on PDE10A ((hydrochloride salt)) is 100 to 200 nM. Moreover, the “Rat mCl” value in series [1] is listed as “++ (++: <100 μl min^−1 mg^−1)”. For the same compound, the “Human mCl” value in series [2] is “++ (++: <100 μl min^−1 mg^−1)”.
For the compound `Cn1nc(-c2ccncc2)c2scc(-c3cccnc3)c2c1=O.O=C(O)C(F)(F)F` [Example 14, 5-methyl-3-(pyridin-3-yl)-7-(pyridin-4-yl)thieno[2,3-d]pyridazin-4(5H)-one bis(trifluoroacetate)], the IC50 at PDE10A lay in the range of 100 to 200 nM. Also, the “Rat mCl” value in series [1] (bis(trifluoroacetate)) is reported as “++ (++: <100 μl min^−1 mg^−1)”. Further, the “Human mCl” value in series [2] was “++ (++: <100 μl min^−1 mg^−1)”.
For the compound `Cn1nc(NCc2ccccc2)c2scc(-c3ccncc3)c2c1=O.O=C(O)C(F)(F)F.O=C(O)C(F)(F)F` [Example 50, 7-(benzylamino)-5-methyl-3-(pyridin-4-yl)thieno[2,3-d]pyridazin-4(5H)-one bis(trifluoroacetate)], the IC50 at PDE10A fell in the range of 100 to 200 nM. Moreover, in series [1], the “Rat mCl” value is “++ (++: <100 μl min^−1 mg^−1)”. Besides, the “Human mCl” value in series [2] is on record as “++ (++: <100 μl min^−1 mg^−1)”.
`Cn1nc(OCc2ccco2)c2scc(-c3ccncc3)c2c1=O` [Example 52, 7-(furan-2-ylmethoxy)-5-methyl-3-(pyridin-4-yl)thieno[2,3-d]pyridazin-4(5H)-one]: the half-inhibitory concentration (IC50) at PDE10A is 100 to 200 nM. Also, in series [1], the “Rat mCl” value is recorded as “+ (+: 100-220 μl min^−1 mg^−1)”. Also, the “Human mCl” value in series [2] is given as “++ (++: <100 μl min^−1 mg^−1)”.
Taken in the same sequence, the figures for `Cn1nc(OCc2ccccc2)c2scc(-c3ccncc3)c2c1=O` [Example 54, 7-(benzyloxy)-5-methyl-3-(pyridin-4-yl)thieno[2,3-d]pyridazin-4(5H)-one] were 100 to 200 nM, “+ (+: 100-220 μl min^−1 mg^−1)” and “++ (++: <100 μl min^−1 mg^−1)”.
Taken in the same sequence, the figures for `Cn1nc(OCc2ccccn2)c2scc(-c3ccncc3)c2c1=O` [Example 55, 5-methyl-3-(pyridin-4-yl)-7-(pyridin-2-ylmethoxy)thieno[2,3-d]pyridazin-4(5H)-one] were 100 to 200 nM, “+ (+: 100-220 μl min^−1 mg^−1)” and “++ (++: <100 μl min^−1 mg^−1)”.
For `Cn1nc(OCc2nccs2)c2scc(-c3ccncc3)c2c1=O` [Example 58, 5-methyl-3-(pyridin-4-yl)-7-(1,3-thiazol-2-ylmethoxy)thieno[2,3-d]pyridazin-4(5H)-one] the same measures were below 100 nM, “++ (++: <100 μl min^−1 mg^−1)” and “++ (++: <100 μl min^−1 mg^−1)”.
In the case of `Cn1nc(OCc2cccc(C#N)c2)c2scc(-c3ccncc3)c2c1=O.O=C(O)C(F)(F)F` [Example 59, 3-({[5-methyl-4-oxo-3-(pyridin-4-yl)-4,5-dihydrothieno[2,3-d]pyridazin-7-yl]oxy}methyl)benzonitrile trifluoroacetate], the half-inhibitory concentration (IC50) at PDE10A is below 100 nM. The “Rat mCl” value in series [1] was “++ (++: <100 μl min^−1 mg^−1)”. Moreover, in series [2], the “Human mCl” value is reported as “++ (++: <100 μl min^−1 mg^−1)”.
`COc1cccc(COc2nn(C)c(=O)c3c(-c4ccncc4)csc23)c1` [Example 61, 7-[(3-methoxybenzyl)oxy]-5-methyl-3-(pyridin-4-yl)thieno[2,3-d]pyridazin-4(5H)-one]: the concentration for half-maximal inhibition (IC50) on PDE10A was 100 to 200 nM. Also, the “Rat mCl” value in series [1] is given as “+ (+: 100-220 μl min^−1 mg^−1)”. Moreover, the “Human mCl” value in series [2] was “++ (++: <100 μl min^−1 mg^−1)”.
For the compound `Cn1nc(OCc2ccc(Cl)cc2)c2scc(-c3ccncc3)c2c1=O` [Example 62, 7-[(4-chlorobenzyl)oxy]-5-methyl-3-(pyridin-4-yl)thieno[2,3-d]pyridazin-4(5H)-one], the IC50 at PDE10A lay within 200 to 500 nM. In addition, in series [1], the “Rat mCl” value was “++ (++: <100 μl min^−1 mg^−1)”. For the same compound, in series [2], the “Human mCl” value is reported as “++ (++: <100 μl min^−1 mg^−1)”.
In the case of `Cn1nc(OCc2coc3ccccc23)c2scc(-c3ccncc3)c2c1=O` [Example 63, 7-(1-benzofuran-3-ylmethoxy)-5-methyl-3-(pyridin-4-yl)thieno[2,3-d]pyridazin-4(5H)-one], at PDE10A, the IC50 is 100 to 200 nM. The “Rat mCl” value in series [1] is listed as “++ (++: <100 μl min^−1 mg^−1)”. For the same compound, in series [2], the “Human mCl” value was “++ (++: <100 μl min^−1 mg^−1)”.
Take `Cn1nc(OCc2cccc3ccoc23)c2scc(-c3ccncc3)c2c1=O` [Example 64, 7-(1-benzofuran-7-ylmethoxy)-5-methyl-3-(pyridin-4-yl)thieno[2,3-d]pyridazin-4(5H)-one]: the 50% inhibitory concentration (IC50) at PDE10A was in the range of 100 to 200 nM. Moreover, in series [1], the “Rat mCl” value is reported as “++ (++: <100 μl min^−1 mg^−1)”. Further, the “Human mCl” value in series [2] is given as “++ (++: <100 μl min^−1 mg^−1)”.
As to `Cn1nc(OCc2cccc(C(N)=O)c2)c2scc(-c3ccncc3)c2c1=O.O=C(O)C(F)(F)F` [Example 67, 3-({[5-methyl-4-oxo-3-(pyridin-4-yl)-4,5-dihydrothieno[2,3-d]pyridazin-7-yl]oxy}methyl)benzamide trifluoroacetate], the IC50 on PDE10A was below 100 nM. The “Rat mCl” value in series [1] was “++ (++: <100 μl min^−1 mg^−1)”. Also, in series [2], the “Human mCl” value is listed as “++ (++: <100 μl min^−1 mg^−1)”.
With `CN(C)c1cccc(-c2nn(C)c(=O)c3c(-c4ccncc4)csc23)c1` [Example 119, 7-[3-(dimethylamino)phenyl]-5-methyl-3-(pyridin-4-yl)thieno[2,3-d]pyridazin-4(5H)-one bis(trifluoroacetate)], the 50% inhibitory concentration (IC50) on PDE10A is below 100 nM.
For the compound `Cc1cc(-c2nn(C)c(=O)c3c(-c4ccncc4)csc23)ccn1` [Example 120, 5-methyl-7-(2-methylpyridin-4-yl)-3-(pyridin-4-yl)thieno[2,3-d]pyridazin-4(5H)-one bis(trifluoroacetate)], the 50% inhibitory concentration (IC50) on PDE10A was below 100 nM.
On to `Cc1ccc(-c2nn(C)c(=O)c3c(-c4ccncc4)csc23)cc1` [Example 121, 5-methyl-7-(4-methylphenyl)-3-(pyridin-4-yl)thieno[2,3-d]pyridazin-4(5H)-one trifluoroacetate], for which, at PDE10A, the 50% inhibitory concentration (IC50) fell in the range of 100 to 200 nM.
On the same count and under the same terms, with `Cn1nc(OCc2ccc3c(c2)CNC3)c2scc(-c3ccncc3)c2c1=O` [Example 126, 7-(2,3-dihydro-1H-isoindol-5-ylmethoxy)-5-methyl-3-(pyridin-4-yl)thieno[2,3-d]pyridazin-4(5H)-one bis(trifluoroacetate)] the figure was 200 to 500 nM; with `N#CCCn1nc(-c2ccncc2)c2scc(-c3ccncc3)c2c1=O` [Example 140, 3-[4-oxo-3,7-di(pyridin-4-yl)thieno[2,3-d]pyridazin-5(4H)-yl]propanenitrile], 100 to 200 nM; with “methyl 3-({[5-methyl-4-oxo-3-(pyridin-4-yl)-4,5-dihydrothieno[2,3-d]pyridazin-7-yl]oxy}methyl)benzoate trifluoroacetate [Example 72]”, below 100 nM.

The values are drawn from patent publication US9200005B2, “Inhibitor compounds of phosphodiesterase type 10A” (AbbVie Deutschland GmbH & Co. KG, priority 2013, dated 2015).
